Patent publication US20230085307A1, “PYRIDAZINONE COMPOUND AND HERBICIDE” (NISSAN CHEMICAL CORPORATION, priority 2019, published 2023)

How the values were obtained:
blackgrass = assay: Test Example 5: herbicidal effect by foliage application, plastic box (Table 20, symbol J); type: in vivo, blackgrass (Alopecurus myosuroides); settings: foliage application, AAH 320 g/ha, three weeks after application
Summary of the method: (§1)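 Foliar spray test: emulsion formulation diluted in water to a set application rate, sprayed onto 14-day-old plants raised in diluvial soil at 25° C to 30° C under glass. Both herbicidal effect and crop effect rated visually three weeks later.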

green foxtail [1] = assay: Test Example 5: herbicidal effect by foliage application, plastic box (Table 20, symbol G); type: in vivo, green foxtail (Setaria viridis); settings: foliage application, AAH 320 g/ha, three weeks after application
Summary of the method: as §1

velvetleaf [2] = assay: Test Example 5: herbicidal effect by foliage application, plastic box (Table 20, symbol M); type: in vivo, velvetleaf (Abutilon theophrasti); settings: foliage application, AAH 320 g/ha, three weeks after application
Summary of the method: as §1

lambsquarters [3] = assay: Test Example 5: herbicidal effect by foliage application, plastic box (Table 20, symbol O); type: in vivo, lambsquarters (Chenopodium album); settings: foliage application, AAH 320 g/ha, three weeks after application
Summary of the method: as §1

southern crabgrass [4] = assay: Test Example 4: herbicidal effect by soil treatment (Table 19, symbol F); type: in vivo, southern crabgrass (Digitaria ciliaris); settings: AAH 320 g/ha
Summary of the method: (§2)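 Step 1: sow seeds in sterilized diluvial soil, cover ~1.5 cm. Step 2: spray diluted emulsion onto soil surface at predetermined rate. Step 3: greenhouse, 25–30° C, three weeks. Step 4: grade effect on each plant by earlier criteria.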

lambsquarters [5] = assay: Test Example 4: herbicidal effect by soil treatment (Table 19, symbol O); type: in vivo, lambsquarters (Chenopodium album); settings: AAH 320 g/ha
Summary of the method: as §2

windgrass [6] = assay: Test Example 4: herbicidal effect by soil treatment (Table 19, symbol L); type: in vivo, windgrass (Apera spica-venti); settings: AAH 320 g/ha
Summary of the method: as §2

Italian ryegrass [7] = assay: Test Example 4: herbicidal effect by soil treatment (Table 19, symbol K); type: in vivo, Italian ryegrass (Lolium multiflorum); settings: AAH 320 g/ha
Summary of the method: as §2

Japanese bulrush = assay: Test Example 1: herbicidal activity, application before weed generation under submerged conditions (Table 16, symbol B); type: in vivo, Japanese bulrush (Schoenoplectus juncoides); settings: 320 g/ha applied herbicide
Summary of the method: (§3)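 Alluvial soil was flooded to 4 cm depth, weed seeds were sown mixed and 2.5-leaf rice seedlings were transplanted. On sowing day, the compound's emulsion, diluted in water to a set dose, was applied to the water surface. Plants grew at 25–30 °C and were scored 0–5 after three weeks.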

barnyard grass [8] = assay: Test Example 5: herbicidal effect by foliage application, plastic box (Table 20, symbol H); type: in vivo, barnyard grass (Echinochloa crus-galli); settings: foliage application, AAH 320 g/ha, three weeks after application
Summary of the method: as §1

Chinese sprangletop = assay: Test Example 3: herbicidal effect by foliage application, Wagner pot (Table 18, symbol D); type: in vivo, chinese sprangletop (Leptochloa chinensis); settings: 320 g/ha
Summary of the method: (§4)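 Plants were sown in alluvial soil held under 0.1–0.5 cm standing water and grown 14 days in a greenhouse at 25–30 °C. An emulsifiable formulation, water-diluted to the set dose, was then sprayed onto the foliage, and effects were scored three weeks later using previously defined criteria.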

barnyard grass [9] = assay: Test Example 4: herbicidal effect by soil treatment (Table 19, symbol H); type: in vivo, barnyard grass (Echinochloa crus-galli); settings: AAH 320 g/ha
Summary of the method: as §2

windgrass [10] = assay: Test Example 5: herbicidal effect by foliage application, plastic box (Table 20, symbol L); type: in vivo, windgrass (Apera spica-venti); settings: foliage application, AAH 320 g/ha, three weeks after application
Summary of the method: as §1

late watergrass = assay: Test Example 1: herbicidal activity, application before weed generation under submerged conditions (Table 16, symbol A); type: in vivo, late watergrass (Echinochloa oryzicola); settings: 320 g/ha applied herbicide
Summary of the method: as §3

Italian ryegrass [11] = assay: Test Example 5: herbicidal effect by foliage application, plastic box (Table 20, symbol K); type: in vivo, Italian ryegrass (Lolium multiflorum); settings: foliage application, AAH 320 g/ha, three weeks after application
Summary of the method: as §1

persian speedwell [12] = assay: Test Example 4: herbicidal effect by soil treatment (Table 19, symbol R); type: in vivo, Persian speedwell (Veronica persica); settings: AAH 320 g/ha
Summary of the method: as §2

false cleavers = assay: Test Example 5: herbicidal effect by foliage application, plastic box (Table 20, symbol Q); type: in vivo, false cleavers (Galium spurium); settings: foliage application, AAH 320 g/ha, three weeks after application
Summary of the method: as §1

wild oat [13] = assay: Test Example 4: herbicidal effect by soil treatment (Table 19, symbol I); type: in vivo, wild oat (Avena fatua); settings: AAH 320 g/ha
Summary of the method: as §2

wild oat [14] = assay: Test Example 5: herbicidal effect by foliage application, plastic box (Table 20, symbol I); type: in vivo, wild oat (Avena fatua); settings: foliage application, AAH 320 g/ha, three weeks after application
Summary of the method: as §1

oval-leafed pondweed = assay: Test Example 1: herbicidal activity, application before weed generation under submerged conditions (Table 16, symbol C); type: in vivo, oval-leafed pondweed (Monochoria vaginalis); settings: 320 g/ha applied herbicide
Summary of the method: as §3

velvetleaf [15] = assay: Test Example 4: herbicidal effect by soil treatment (Table 19, symbol M); type: in vivo, velvetleaf (Abutilon theophrasti); settings: AAH 320 g/ha
Summary of the method: as §2

rice flat sedge = assay: Test Example 3: herbicidal effect by foliage application, Wagner pot (Table 18, symbol E); type: in vivo, rice flat sedge (Cyperus iria); settings: 320 g/ha
Summary of the method: as §4

green foxtail [16] = assay: Test Example 4: herbicidal effect by soil treatment (Table 19, symbol G); type: in vivo, green foxtail (Setaria viridis); settings: AAH 320 g/ha
Summary of the method: as §2

barnyard grass [17] = assay: Test Example 3: herbicidal effect by foliage application, Wagner pot (Table 18, symbol H); type: in vivo, barnyard grass (Echinochloa crus-galli); settings: 320 g/ha
Summary of the method: as §4

chickweed [18] = assay: Test Example 5: herbicidal effect by foliage application, plastic box (Table 20, symbol P); type: in vivo, common chickweed (Stellaria media); settings: foliage application, AAH 320 g/ha, three weeks after application
Summary of the method: as §1

persian speedwell [19] = assay: Test Example 5: herbicidal effect by foliage application, plastic box (Table 20, symbol R); type: in vivo, Persian speedwell (Veronica persica); settings: foliage application, AAH 320 g/ha, three weeks after application
Summary of the method: as §1

chickweed [20] = assay: Test Example 4: herbicidal effect by soil treatment (Table 19, symbol P); type: in vivo, common chickweed (Stellaria media); settings: AAH 320 g/ha
Summary of the method: as §2

redroot pigweed [21] = assay: Test Example 5: herbicidal effect by foliage application, plastic box (Table 20, symbol N); type: in vivo, redroot pigweed (Amaranthus retroflexus); settings: foliage application, AAH 320 g/ha, three weeks after application
Summary of the method: as §1

southern crabgrass [22] = assay: Test Example 5: herbicidal effect by foliage application, plastic box (Table 20, symbol F); type: in vivo, southern crabgrass (Digitaria ciliaris); settings: foliage application, AAH 320 g/ha, three weeks after application
Summary of the method: as §1

redroot pigweed [23] = assay: Test Example 4: herbicidal effect by soil treatment (Table 19, symbol N); type: in vivo, redroot pigweed (Amaranthus retroflexus); settings: AAH 320 g/ha
Summary of the method: as §2

Structure (SMILES): Cc1nn(C)c(=O)c(-c2c(-c3ccccc3OCC3CC3)sc3ccccc23)c1O [1-113]
- J: blackgrass, herbicidal effect (blackgrass): 3 (Herbicidal rate of 40% or more and less than 70%)
- G: green foxtail, herbicidal effect (green foxtail [1]): 0 (Herbicidal rate of 5% or less (almost no effect))
- M: velvetleaf, herbicidal effect (velvetleaf [2]): 3 (Herbicidal rate of 40% or more and less than 70%)
- O: lambsquarters, herbicidal effect (lambsquarters [3]): 0 (Herbicidal rate of 5% or less (almost no effect))
- F: southern crabgrass, herbicidal effect rating (southern crabgrass [4]): 2 (Herbicidal rate of 20% or more and less than 40%)
- O: lambsquarters, herbicidal effect rating (lambsquarters [5]): 2 (Herbicidal rate of 20% or more and less than 40%)
- L: windgrass, herbicidal effect rating (windgrass [6]): 0 (Herbicidal rate of 5% or less (almost no effect))
- K: Italian ryegrass, herbicidal effect rating (Italian ryegrass [7]): 0 (Herbicidal rate of 5% or less (almost no effect))
- Herbicidal effect on B: Japanese bulrush (grade 0-5) (Japanese bulrush): 0 (Herbicidal rate of 5% or less (almost no effect))
- H: barnyard grass, herbicidal effect (barnyard grass [8]): 1 (Herbicidal rate of 5% or more and less than 20%)
- herbicidal effect on D (Chinese sprangletop), rating 0-5 (Chinese sprangletop): 0 (Herbicidal rate of 5% or less (almost no effect))
- H: barnyard grass, herbicidal effect rating (barnyard grass [9]): 3 (Herbicidal rate of 40% or more and less than 70%)
- L: windgrass, herbicidal effect (windgrass [10]): 2 (Herbicidal rate of 20% or more and less than 40%)
- Herbicidal effect on A: late watergrass (grade 0-5) (late watergrass): 3 (Herbicidal rate of 40% or more and less than 70%)
- K: Italian ryegrass, herbicidal effect (Italian ryegrass [11]): 1 (Herbicidal rate of 5% or more and less than 20%)
- R: persian speedwell, herbicidal effect rating (persian speedwell [12]): 5 (Herbicidal rate of 90% or more (almost completely withered))
- Q: false cleavers, herbicidal effect (false cleavers): 5 (Herbicidal rate of 90% or more (almost completely withered))
- I: wild oat, herbicidal effect rating (wild oat [13]): 1 (Herbicidal rate of 5% or more and less than 20%)
- I: wild oat, herbicidal effect (wild oat [14]): 1 (Herbicidal rate of 5% or more and less than 20%)
- Herbicidal effect on C: oval-leafed pondweed (grade 0-5) (oval-leafed pondweed): 0 (Herbicidal rate of 5% or less (almost no effect))
- M: velvetleaf, herbicidal effect rating (velvetleaf [15]): 0 (Herbicidal rate of 5% or less (almost no effect))
- herbicidal effect on E (rice flat sedge), rating 0-5 (rice flat sedge): 3 (Herbicidal rate of 40% or more and less than 70%)
- G: green foxtail, herbicidal effect rating (green foxtail [16]): 1 (Herbicidal rate of 5% or more and less than 20%)
- herbicidal effect on H (barnyard grass), rating 0-5 (barnyard grass [17]): 4 (Herbicidal rate of 70% or more and less than 90%)
- P: chickweed, herbicidal effect (chickweed [18]): 5 (Herbicidal rate of 90% or more (almost completely withered))
- R: persian speedwell, herbicidal effect (persian speedwell [19]): 5 (Herbicidal rate of 90% or more (almost completely withered))
- P: chickweed, herbicidal effect rating (chickweed [20]): 4 (Herbicidal rate of 70% or more and less than 90%)
- N: redroot pigweed, herbicidal effect (redroot pigweed [21]): 0 (Herbicidal rate of 5% or less (almost no effect))
- F: southern crabgrass, herbicidal effect (southern crabgrass [22]): 0 (Herbicidal rate of 5% or less (almost no effect))
- N: redroot pigweed, herbicidal effect rating (redroot pigweed [23]): 3 (Herbicidal rate of 40% or more and less than 70%)
